Laboratory results as given in PMC8645336, “Benchmarking a highly selective USP30 inhibitor for enhancement of mitophagy and pexophagy” (Life Science Alliance, 2021).

Tests used:
[1] = biological target: T1, USP15 (Homo sapiens, UniProt Q9Y4E8); assay: biochemical; parameters: Ubiquigent DUB profiler selectivity panel, remaining enzyme activity as % of control; settings: read-out: % of control remaining
T1 sequence (Q9Y4E8 1-981): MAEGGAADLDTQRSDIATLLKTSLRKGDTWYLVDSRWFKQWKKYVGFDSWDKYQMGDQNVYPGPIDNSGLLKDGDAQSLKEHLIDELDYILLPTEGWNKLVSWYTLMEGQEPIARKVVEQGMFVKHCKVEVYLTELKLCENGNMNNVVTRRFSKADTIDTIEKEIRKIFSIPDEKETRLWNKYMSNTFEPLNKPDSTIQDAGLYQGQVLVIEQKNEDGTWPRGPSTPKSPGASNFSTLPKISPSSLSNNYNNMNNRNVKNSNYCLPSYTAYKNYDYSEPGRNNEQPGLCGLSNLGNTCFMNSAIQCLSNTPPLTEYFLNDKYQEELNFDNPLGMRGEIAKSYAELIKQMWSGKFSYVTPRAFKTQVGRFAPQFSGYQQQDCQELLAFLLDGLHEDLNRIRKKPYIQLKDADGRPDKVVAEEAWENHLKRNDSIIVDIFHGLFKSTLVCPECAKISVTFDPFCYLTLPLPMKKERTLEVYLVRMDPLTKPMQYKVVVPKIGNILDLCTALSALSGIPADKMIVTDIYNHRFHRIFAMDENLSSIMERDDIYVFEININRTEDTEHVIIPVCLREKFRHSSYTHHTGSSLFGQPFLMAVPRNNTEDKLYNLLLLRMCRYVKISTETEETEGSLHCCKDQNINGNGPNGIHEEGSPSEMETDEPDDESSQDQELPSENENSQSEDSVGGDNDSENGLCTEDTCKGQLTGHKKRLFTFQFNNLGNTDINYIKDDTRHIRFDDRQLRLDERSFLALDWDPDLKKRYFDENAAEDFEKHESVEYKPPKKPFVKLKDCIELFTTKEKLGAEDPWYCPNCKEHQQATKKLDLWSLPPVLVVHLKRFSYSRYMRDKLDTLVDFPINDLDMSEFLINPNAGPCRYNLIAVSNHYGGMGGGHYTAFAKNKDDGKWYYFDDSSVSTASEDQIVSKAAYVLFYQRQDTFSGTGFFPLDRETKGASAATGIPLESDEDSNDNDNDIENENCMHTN
In short: (§1)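 In YFP-PRKN-overexpressing hTERT-RPE1 cells, 1 h antimycin A plus oligomycin A (1 μM each) with CMPD-39, then Western blot of TOMM20 ubiquitylation. Target engagement: 2 h compound, then 10 min HA-Ub-PA at 37°C, read as USP30 shift. DUB panel (>40 enzymes) screened at 1-100 μM.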

[2] = biological target: T2, USP21 (Homo sapiens, UniProt Q9UK80); assay: biochemical; parameters: Ubiquigent DUB profiler selectivity panel, remaining enzyme activity as % of control; settings: read-out: % of control remaining
T2 sequence (Q9UK80 1-565): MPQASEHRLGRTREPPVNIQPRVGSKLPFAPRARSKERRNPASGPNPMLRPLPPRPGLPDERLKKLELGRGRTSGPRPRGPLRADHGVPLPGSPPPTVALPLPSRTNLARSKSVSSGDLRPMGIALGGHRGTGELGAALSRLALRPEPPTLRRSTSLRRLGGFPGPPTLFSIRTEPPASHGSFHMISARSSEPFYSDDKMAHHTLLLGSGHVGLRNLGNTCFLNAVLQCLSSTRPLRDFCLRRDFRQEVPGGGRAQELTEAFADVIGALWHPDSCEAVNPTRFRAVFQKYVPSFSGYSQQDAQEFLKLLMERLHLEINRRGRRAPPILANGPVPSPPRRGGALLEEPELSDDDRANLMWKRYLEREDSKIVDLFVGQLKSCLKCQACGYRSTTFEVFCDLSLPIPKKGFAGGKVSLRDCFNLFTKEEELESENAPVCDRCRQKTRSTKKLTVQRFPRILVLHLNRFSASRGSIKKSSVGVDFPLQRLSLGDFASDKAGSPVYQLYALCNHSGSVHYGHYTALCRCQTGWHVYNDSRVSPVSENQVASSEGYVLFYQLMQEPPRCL
In short: as §1

CC(C)(C)NS(=O)(=O)c1ccc(NC(=O)[C@H](Cc2ccccc2)NC(=O)c2ccc(F)cc2)cc1 [compound 39, CMPD-39]
remaining activity at 1 µM [1]: 103%
remaining activity at 10 µM [1]: 101%
remaining activity at 100 µM [1]: 98.1%
remaining activity at 1 µM [2]: 102%
remaining activity at 10 µM [2]: 94%
remaining activity at 100 µM [2]: 90.9%
